Measurements reported in patent US9540361B2, “N-substituted azetidine derivatives” (Merck Sharp & Dohme B.V., priority 2010, dated 2017).
Structures can show the parent of a compound that is named as a salt. Marks after values point to notes of the source that are not given here.

Experiments:
estrogen receptor alpha = target: T1, estrogen receptor alpha (Homo sapiens, UniProt P03372); experiment: ERα downregulation assay in T47D breast cancer cells (ERα ELISA); type: cell-based; settings: downregulation of ERα relative to fulvestrant (100%), 1E-5 M, 24 hours, negative = upregulation
T1 construct: endogenous in cells; host or cells: T47D human breast cancer cells (ATCC)
T1 sequence (P03372 1-595): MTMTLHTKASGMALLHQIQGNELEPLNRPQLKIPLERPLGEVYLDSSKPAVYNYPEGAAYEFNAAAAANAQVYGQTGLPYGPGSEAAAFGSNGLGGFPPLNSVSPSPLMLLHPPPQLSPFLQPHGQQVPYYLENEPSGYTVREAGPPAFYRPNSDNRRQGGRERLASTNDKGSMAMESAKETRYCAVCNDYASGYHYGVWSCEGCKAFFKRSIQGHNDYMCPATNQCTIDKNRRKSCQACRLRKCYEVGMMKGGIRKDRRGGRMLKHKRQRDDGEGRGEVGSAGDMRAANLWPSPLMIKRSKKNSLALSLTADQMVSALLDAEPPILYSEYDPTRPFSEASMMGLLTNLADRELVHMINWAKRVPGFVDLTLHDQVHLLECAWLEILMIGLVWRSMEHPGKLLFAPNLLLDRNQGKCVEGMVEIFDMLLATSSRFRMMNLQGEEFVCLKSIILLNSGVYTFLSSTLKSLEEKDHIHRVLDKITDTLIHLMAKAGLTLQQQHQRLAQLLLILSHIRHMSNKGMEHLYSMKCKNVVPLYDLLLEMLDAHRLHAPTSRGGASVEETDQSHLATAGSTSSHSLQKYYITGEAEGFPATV
Description: More specifically, this in vitro bioassay is used to determine the efficacy (fraction of maximal response) of the compound by comparing the data for this compound with those of the reference compound ICI 182,780 (fulvestrant) in the same test (downregulation of fulvestrant is 100% by definition).
A more detailed description of the method used is as follows.
Cell culture. The human epithelial breast cancer cell line T47D (origin: ATCC) was routinely maintained in a 1:1 mixture of Ham's F12 medium and Dulbecco's Modified Eagle Medium (Gibco) enriched with 5% fetal calf serum (Hyclone), 10 mM HEPES pH 7.5 and 100 μg/ml penicillin-streptomycin solution. Cells were grown in 80 cm2 culture flasks (Nunc, Roskilde, Denmark) and kept in an atmosphere of 5% CO2-95% air at 37 degrees Celsius. Cells were subcultured when they reached about 80-90% confluence, resulting in one passage a week. Subculturing includes detaching the cells using Cell Dissociation Buffer [Sigma] and subsequent inoculation at 1:5 or 1:10 in a new Roux flask (175 cc) and\or plating out in Nunclon™ Surface 96 wells microplates. The culture medium needs to be refreshed on day three or four of the incubation, if applicable.
Determination of ERα protein levels: T47D cells in the microplates are incubated with 1E-5 M test compound for 24 hours. The supernatant in all wells is carefully aspirated. Cells are lysed on the microplate and cell lysates are probed for ERα content using an ERα ELISA assay kit (Active Motif).

[1] = target: T2, human estrogen receptor α (hERα) (Homo sapiens, UniProt P03372); experiment: antagonistic activity in CHO cells co-transfected with hERα, rat oxytocin promoter and luciferase reporter gene; type: cell-based; settings: antagonism of 17β-estradiol-induced transactivation, CHO-hERα-RO-LUC; read-out: ERα pIC50 (converted)
T2 sequence (P03372 1-595): T1 sequence (P03372 1-595)
Experimental: The antagonistic activity of compounds on the estrogen receptors was determined in an in vitro bioassay with recombinant Chinese Hamster Ovary (CHO) cells stably co-transfected with the human estrogen receptor α (hERα), the rat oxytocin promoter (RO) and the luciferase reporter gene (LUC). […] The antagonistic efficacy, i.e. the amount of maximal inhibition of the 17β-estradiol activated receptor by a compound, is expressed as fraction relative to the maximal inhibition as induced by the standard anti-estrogen ICI 164,384 (efficacy test compound=(maximal inhibition test compound/maximal inhibition ICI 164,384)). A more detailed description of the methodology can be found in De Gooyer et al., Steroids, 68 (2003) 21-30.

DR (%) (estrogen receptor alpha) | IC50 [1] | SMILES
98% | 2.51 nM | O=C(O)C(F)(F)F.O=C(c1ccc(OC2CN(CCCF)C2)cc1)c1c(-c2ccc(O)cc2)sc2cc(O)ccc12 [compound 7j, (4-(1-(3-fluoropropyl)azetidin-3-yloxy)phenyl)(6-hydroxy-2-(4-hydroxyphenyl)benzo[b]thiophen-3-yl)methanone 2,2,2-trifluoroacetate]
– | 0.501 nM | CCCN1CC(Oc2ccc(-c3c(-c4ccccc4Cl)noc3-c3ccc(O)cc3C)cc2)C1 [compound 6k, 4-(3-(2-chlorophenyl)-4-(4-(1-propylazetidin-3-yloxy)phenyl)isoxazol-5-yl)-3-methylphenol 2,2,2-trifluoroacetate]
80% | 25.1 nM | CCCN1CC(Oc2ccc(C(=O)c3c(-c4ccccc4Cl)noc3-c3ccccc3)cc2)C1 [compound 7ao, (3-(2-chlorophenyl)-5-phenyl)isoxazol-4-yl)(4-(1-propylazetidin-3-yloxy)-phenyl)methanone hydrochloride]
33% | 63.1 nM | CCCN1CC(Oc2ccc(Cc3c(-c4ccccc4)c(=O)oc4cc(OC)ccc34)cc2)C1 [compound 7bf, 7-methoxy-3-phenyl-4-(4-(1-propylazetidin-3-yloxy)benzyl)-2H-chromen-2-one]
92% | 1 nM | CCCN1CC(Oc2ccc(-c3c(-c4ccccc4CC)noc3-c3ccc(O)cc3)cc2)C1.O=C(O)C(F)(F)F [compound 7ad, 4-(3-(2-ethylphenyl)-4-(4-(1-propylazetidin-3-yloxy)phenyl)isoxazol-5-yl)-phenol 2,2,2-trifluoroacetate]
94% | 1.58 nM | CCCN1CC(Oc2ccc(-c3c(-c4cccc(C)c4C)noc3-c3ccc(O)cc3)cc2)C1.O=C(O)C(F)(F)F [compound 7ac, 4-(3-(2,3-dimethylphenyl)-4-(4-(1-propylazetidin-3-yloxy)phenyl)isoxazol-5-yl)phenol 2,2,2-trifluoroacetate]
46% | 3.98 nM | CCN1CC(Oc2ccc(C(=O)c3c(-c4ccc(O)cc4)sc4cc(O)ccc34)cc2)C1.O=C(O)C(F)(F)F [compound 7g, (4-(1-ethylazetidin-3-yloxy)phenyl)(6-hydroxy-2-(4-hydroxyphenyl)benzo[b]-thiophen-3-yl)methanone 2,2,2-trifluoroacetate]
77% | 1.26 nM | Cl.O=C(c1ccc(OC2CN(CC3CCC3)C2)cc1)c1c(-c2ccc(O)cc2)sc2cc(O)ccc12 [compound 7n, (4-(1-(cyclobutylmethyl)azetidin-3-yloxy)phenyl)(6-hydroxy-2-(4-hydroxyphenyl)benzo[b]thiophen-3-yl)methanone hydrochloride]
68% | 0.631 nM | C=CCN1CC(Oc2ccc(-c3c(-c4ccc(O)cc4)sc4cc(O)ccc34)cc2)C1.O=C(O)C(F)(F)F [compound 7b, 3-(4-(1-allylazetidin-3-yloxy)phenyl)-2-(4-hydroxyphenyl)benzo[b]thiophen-6-ol 2,2,2-trifluoroacetate]
101% | 1.58 nM | CCCN1CC(Oc2ccc(C(=O)c3c(-c4ccccc4Cl)noc3-c3ccc(O)cc3)cc2F)C1.Cl [compound 7at, (3-(2-chlorophenyl)-5-(4-hydroxyphenyl)isoxazol-4-yl)(3-fluoro-4-(1-propylazetidin-3-yloxy)phenyl)methanone hydrochloride]
93% | 25.1 nM | CCCN1CC(Oc2ccc(C(=O)c3c(-c4ncccc4C)noc3-c3ccc(O)cc3)cc2)C1.Cl [compound 7am, (5-(4-hydroxyphenyl)-3-(3-methylpyridin-2-yl)isoxazol-4-yl)(4-(1-propylazetidin-3-yloxy)phenyl)methanone hydrochloride]
−5 ^(d) % | 0.501 nM | CCCN1CC(Oc2ccc(C(=C(CC)c3ccccc3)c3ccc(O)cc3)cc2)C1 (mixture of isomers) [compound 6v, (E/Z)-4-(2-phenyl-1-(4-(1-propylazetidin-3-yloxy)phenyl)but-1-enyl)phenol 2,-2,2-trifluoroacetate]
33% | 0.794 nM | C=C(c1ccc(OC2CN(CCC)C2)cc1)c1c(-c2ccccc2Cl)noc1-c1ccc(O)cc1 [compound 7ax, 4-(3-(2-chlorophenyl)-4-(1-(4-(1-propylazetidin-3-yloxy)phenyl)vinyl)isoxazol-5-yl)phenol]
– | 0.794 nM | CN1CC(Oc2ccc(-c3c(-c4ccc(O)cc4)sc4cc(O)ccc34)cc2)C1 [compound 6a, 2-(4-hydroxyphenyl)-3-(4-(1-methylazetidin-3-yloxy)phenyl)benzo[b]thiophen-6-ol 2,2,2-trifluoroacetate]
– | 0.631 nM | CCCCN1CC(Oc2ccc(-c3c(-c4ccccc4Cl)noc3-c3ccc(O)cc3)cc2)C1 [compound 6h, 4-(4-(4-(1-butylazetidin-3-yloxy)phenyl)-3-(2-chlorophenyl)isoxazol-5-yl)-phenol hydrochloride]
– | 0.398 nM | CCCN1CC(Oc2ccc(-c3c(-c4ccccc4C)noc3-c3ccc(O)cc3)cc2)C1 [compound 6j, 4-(4-(4-(1-propylazetidin-3-yloxy)phenyl)-3-o-tolylisoxazol-5-yl)phenol 2,2,2-trifluoroacetate]
– | 1 nM | CCC(C)N1CC(Oc2ccc(-c3c(-c4ccccc4Cl)noc3-c3ccc(O)cc3)cc2)C1 (centres unmarked) [compound 6i, 4-(4-(4-(1-sec-butylazetidin-3-yloxy)phenyl)-3-(2-chlorophenyl)isoxazol-5-yl)-phenol hydrochloride]
– | 1.58 nM | CC(C)N1CC(Oc2ccc(C(=O)c3c(-c4ccc(O)cc4)sc4cc(O)ccc34)cc2)C1 [compound 6e, (6-hydroxy-2-(4-hydroxyphenyl)benzo[b]thiophen-3-yl)(4-(1-isopropylazetidin-3-yloxy)phenyl)methanone hydrochloride]
– | 1.58 nM | CCCN1CC(Oc2ccc(Cc3c(-c4ccccc4)c(=O)oc4cc(O)ccc34)cc2)C1 [compound 6r, 7-hydroxy-3-phenyl-4-(4-(1-propylazetidin-3-yloxy)benzyl)-2H-chromen-2-one 2,2,2-trifluoroacetate]
– | 3.16 nM | C[C@]12C[C@H](c3ccc(OC4CN(CC5CC5)C4)cc3)C3c4ccc(O)cc4CC[C@H]3[C@@H]1CC[C@@H]2O (stereo partly drawn) [compound 6t, (8S,11S,13S,14S,17S)-11-(4-(1-(cyclopropylmethyl)azetidin-3-yloxy)phenyl)-13-methyl-7,8,9,10,11,12,13,14,15,16,17-decahydro-6H-cyclopenta[a]phenanthrene-3,17-diol]
– | 0.631 nM | CCCN1CC(Oc2ccc(-c3c(-c4ccccc4Cl)noc3-c3ccc(O)c(C)c3)cc2)C1 [compound 6l, 4-(3-(2-chlorophenyl)-4-(4-(1-propylazetidin-3-yloxy)phenyl)isoxazol-5-yl)-2-methylphenol 2,2,2-trifluoroacetate]
– | 2.51 nM | CCCN1CC(Oc2ccc([C@H]3C[C@]4(C)[C@@H](O)CC[C@H]4[C@@H]4CCc5cc(O)ccc5C34)cc2)C1 (stereo partly drawn) [compound 6s, (8S,11S,13S,14S,17S)-13-methyl-11-(4-(1-propylazetidin-3-yloxy)phenyl)-7,-8,9,10,11,12,13,14,15,16,17-decahydro-6H-cyclopenta[a]phenanthrene-3,17-diol]
– | 15.8 nM | Oc1ccc(-c2onc(-c3ccccc3Cl)c2-c2ccc(OC3CNC3)cc2)cc1 [compound 6f, 4-(4-(4-(azetidin-3-yloxy)phenyl)-3-(2-chlorophenyl)isoxazol-5-yl)phenol]
